Test results as given in patent US6455761B1, “Agrobacterium-mediated transformation of turnip rape” (Helsinki University Licensing Ltd. Oy, priority 1997, dated 2002).

Tests used:
[1] = tested on: inflorescence stem segments of turnip rape plants; experiment: Effect of cultivation factors on transformation of inflorescence stem segments by Agrobacterium LBA4404pGPTV-KAN-GUSint (histological GUS assay); type: cell-based, Brassica rapa ssp. oleifera; settings: for Average %: average of cultivars
explants of turnip rape = tested on: explants of turnip rape
Procedure: (§1) Selection and regeneration. […] Thereafter the whole explants or cut callus pieces with the green nodules and primordia were transferred on hormone free MS medium, where nodules developed primordia and shoots. Silver nitrate in concentration 0-90 μM (0-15 mg/l) and porous paper tape for sealing of Petri dishes were used in transformation and regeneration of transgenic plants.
Shoot regeneration. Effects of different hormones on various explants of mature plants of turnip rape were tested in preliminary experiments to achieve sufficient shoot regeneration.
Silver nitrate application and aeration. The use of silver nitrate in in vitro cultivation of turnip rape has often been reported as an essential factor for shoot regeneration (Chi et al. 1990; Hachey et al. 1991; Mukhopadhuay et al. 1992; Radke et al. 1992). […] We have examined the effect of silver nitrate on regeneration capacity of explants of turnip rape.
Selection. To prevent Agrobacterium growth on the medium we used claforan (cefotaxim) 500 mg/l or carbenicillin 200 mg/l.

Agrobacterium = settings: 5 mg/l (30 μM); MS medium during co-cultivation with plant explants
Text: We have transformed inflorescence stem segments of turnip rape using different concentrations of silver nitrate and sealed plates with plant explants by parafilm or porous paper tape. Transformation efficiency was examined in histological GUS assay 4 days after co-cultivation. Transformation efficiency is shown in Table 4 as proportion of explants with blue inclusions in the calli per all explants (also in %).

[2] = tested on: turnip rape plants cv. Valtti and Sisu; experiment: Transgenic shoot regeneration under antibiotic selection
Procedure: as §1
Selection on kanamycin or hygromycin was applied immediately after co-cultivation of the explants with Agrobacteria, three days after beginning of the whole procedure. Antibiotics were used in concentrations 20-25 mg/l during all steps of regeneration and cultivation of transgenic plants.
Using nptII and hpt genes in transformation constructions provides the plants resistance to kanamycin and hygromycin, respectively. […] Because morfogenesis occurs mainly on the basal side of the stem segmets, explants are placed basal side down on the selection medium.
Turnip rape plants cv. Valtti and Sisu were transformed with LBA4404 pGPTV-KAN-GUSint and LBA4404 pGPTV-HPT-GUSint.
Analysis of transformation. Green regenerated shoots were checked for GUS activity. Leaves or leaf pieces were prepared for histological GUS assay as described above.

[3] = 100 μM AS added in MS medium during inoculation and cocultivation, cv. Sisu
[4] = 100 μM AS added in MS medium during inoculation and cocultivation, cv. Valtti
[5] = 100 μM AS in MS medium and Agrobacterium grown one night with 100 μM acetosyringone, cv. Sisu
[6] = 100 μM AS in MS medium and Agrobacterium grown one night with 100 μM acetosyringone, cv. Valtti
[7] = selection on 20 mg/l, cultivars Sisu and Valtti

COc1cc(C(C)=O)cc(OC)c1O [AS, 3,5-dimethoxy-4-hydroxyacetophenon]
Average % ([1]; 100 μM AS added in MS medium during inoculation and cocultivation): 41.6% | GUS +/all [1, 3]: 24/65 | GUS +/all % [1, 3]: 36.9% | GUS +/all [1, 4]: 36/78 | GUS +/all % [1, 4]: 46.2% | Average % ([1]; 100 μM AS in MS medium and Agrobacterium grown one night with 100 μM acetosyringone): 46.6% | GUS +/all [1, 5]: 29/65 | GUS +/all % [1, 5]: 44.6% | GUS +/all [1, 6]: 35/72 | GUS +/all % [1, 6]: 48.6%

O=[N+]([O-])[O-].[Ag+] [AgNO3, silver nitrate]
Shoot regeneration optimum concentration (explants of turnip rape): 5 to 10 mg/L | effect of high concentrations on cultivated calli (explants of turnip rape): browning and partial necrosis of cultivated calli | effect on Agrobacterium growth (Agrobacterium): suppresses Agrobacterium growth | Average % ([1]; 5 mg/l AgNO3): 29.5% | GUS +/all % ([1]; 5 mg/l AgNO3, cv. Sisu): 27.1% | GUS +/all ([1]; 5 mg/l AgNO3, cv. Sisu, 4 days after co-cultivation): 19/70 | GUS +/all ([1]; 5 mg/l AgNO3, cv. Valtti): 14/37 | GUS +/all % ([1]; 5 mg/l AgNO3, cv. Valtti): 37.8% | Average % ([1]; 10 mg/l AgNO3): 37.6% | GUS +/all ([1]; 10 mg/l AgNO3, cv. Sisu): 15/53 | GUS +/all % ([1]; 10 mg/l AgNO3, cv. Sisu): 28.3% | GUS +/all ([1]; 10 mg/l AgNO3, cv. Valtti): 15/32 | GUS +/all % ([1]; 10 mg/l AgNO3, cv. Valtti): 46.9% | Average % ([1]; 15 mg/l AgNO3): 37.6% | GUS +/all ([1]; 15 mg/l AgNO3, cv. Sisu): 17/40 | GUS +/all % ([1]; 15 mg/l AgNO3, cv. Sisu): 42.5% | GUS +/all ([1]; 15 mg/l AgNO3, cv. Valtti): 14/43 | GUS +/all % ([1]; 15 mg/l AgNO3, cv. Valtti): 32.6% | effect on transformation ([1]; silver nitrate in the cultivation medium): does not have a negative effect on transformation

CO/N=C(\C(=O)N[C@@H]1C(=O)N2C(C(=O)O)=C(COC(C)=O)CS[C@H]12)c1csc(N)n1 [Claforan, cefotaxim]
decrease of shoot regeneration frequency compared to carbenicillin (explants of turnip rape; claforan 500 mg/l vs carbenicillin 200 mg/l, data not shown): 2-5 times | recovering of transgenic shoots after inoculation with Agrobacteria ([2]; claforan used to prevent Agrobacterium growth): full block of recovering of transgenic shoots

O=C(O)Cc1c[nH]c2ccccc12 [IAA, indole-3-acetic acid]
effect on shoot regeneration relative to BAP and NAA (explants of turnip rape; data not shown): less effective than BAP and NAA

NC[C@H]1O[C@H](O[C@H]2[C@H](O)[C@@H](O[C@H]3O[C@H](CO)[C@@H](O)[C@H](N)[C@H]3O)[C@H](N)C[C@@H]2N)[C@H](O)[C@@H](O)[C@@H]1O [Kanamycin]
escape proportion ([2]; selection of transgenic shoots): 80-90% | Escapes per green shoots [2, 7]: 52/59 | Escapes per green shoots % [2, 7]: 88% | GUS positive per all explants [2, 7]: 7/182 | GUS positive per all explants % [2, 7]: 4% | Green shoots per all explants [2, 7]: 59/182 | Green shoots per all explants % [2, 7]: 32%

CC1(C)S[C@@H]2[C@H](NC(=O)C(C(=O)O)c3ccccc3)C(=O)N2[C@H]1C(=O)O (some centres unmarked) [carbenicillin]
effect on regeneration (explants of turnip rape; 200 mg/l, data not shown): does not have an apparent negative effect on regeneration

c1coc(CNc2ncnc3[nH]cnc23)c1 [kinetin]
effect on shoot regeneration relative to BAP and NAA (explants of turnip rape; data not shown): less effective than BAP and NAA
